Results taken from the supplement of paper PMC10307832.

Tests used:
Assay in all cases: relative viability (nuclei count vs DMSO), 5 days (fraction); higher = more cells survive
Doramapimod + Crizotinib = compound: Cc1ccc(-n2nc(C(C)(C)C)cc2NC(=O)Nc2ccc(OCCN3CCOCC3)c3ccccc23)cc1 [Doramapimod] + C[C@@H](Oc1cc(-c2cnn(C3CCNCC3)c2)cnc1N)c1c(Cl)ccc(F)c1Cl [Crizotinib] (partner 1 µM)
Method in brief: (§1)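 Cells from lung cancer lines were seeded into 1536-well plates and, one day later, dosed by pin tool. Treatments were either a single drug or a fixed dose of an anchor drug with five library-drug doses (not always all listed) in √10 steps. After 5 days, nuclei were stained in a one-step fixation (final 0.05% Triton X-100, 1% formaldehyde, 1 ug/ml Hoechst) and counted on 4× images, and relative viability is the treated-to-vehicle nuclei ratio, as the median of duplicate plates.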

IPA-3 + Foretinib = compound: C1=CC=C2C(=C1)C=CC(=C2SSC3=C(C=CC4=CC=CC=C43)O)O [IPA-3] + COc1cc2c(Oc3ccc(NC(=O)C4(C(=O)Nc5ccc(F)cc5)CC4)cc3F)ccnc2cc1OCCCN1CCOCC1 [Foretinib] (partner 0.25 µM)
Method in brief: as §1

Doramapimod + Olaparib = compound: Cc1ccc(-n2nc(C(C)(C)C)cc2NC(=O)Nc2ccc(OCCN3CCOCC3)c3ccccc23)cc1 [Doramapimod] + O=C(c1cc(Cc2n[nH]c(=O)c3ccccc23)ccc1F)N1CCN(C(=O)C2CC2)CC1 [Olaparib] (partner 8 µM)
Method in brief: as §1

Doramapimod + Alpelisib = compound: Cc1ccc(-n2nc(C(C)(C)C)cc2NC(=O)Nc2ccc(OCCN3CCOCC3)c3ccccc23)cc1 [Doramapimod] + Cc1nc(NC(=O)N2CCC[C@H]2C(N)=O)sc1-c1ccnc(C(C)(C)C(F)(F)F)c1 [Alpelisib] (partner 2 µM)
Method in brief: as §1

Cell Line: UMC-11
- relative viability (Doramapimod + Crizotinib; first compound 0.02 µM): 0.58
- relative viability (Doramapimod + Crizotinib; first compound 0.06325 µM): 0.623
- relative viability (Doramapimod + Crizotinib; first compound 0.2 µM): 0.608
- relative viability (Doramapimod + Crizotinib; first compound 0.6325 µM): 0.609
- relative viability (Doramapimod + Crizotinib; first compound 2 µM): 0.567
- relative viability (IPA-3 + Foretinib; first compound 0.2 µM): 1.11
- relative viability (IPA-3 + Foretinib; first compound 0.6325 µM): 0.983
- relative viability (IPA-3 + Foretinib; first compound 2 µM): 1.08
- relative viability (IPA-3 + Foretinib; first compound 6.325 µM): 1
- relative viability (IPA-3 + Foretinib; first compound 20 µM): 1.25
- relative viability (Doramapimod + Olaparib; first compound 0.02 µM): 0.353
- relative viability (Doramapimod + Olaparib; first compound 0.06325 µM): 0.348
- relative viability (Doramapimod + Olaparib; first compound 0.2 µM): 0.274
- relative viability (Doramapimod + Olaparib; first compound 0.6325 µM): 0.963
- relative viability (Doramapimod + Olaparib; first compound 2 µM): 0.365
- relative viability (Doramapimod + Alpelisib; first compound 0.02 µM): 1
- relative viability (Doramapimod + Alpelisib; first compound 0.06325 µM): 1.03
- relative viability (Doramapimod + Alpelisib; first compound 0.2 µM): 0.891
- relative viability (Doramapimod + Alpelisib; first compound 0.6325 µM): 0.989
- relative viability (Doramapimod + Alpelisib; first compound 2 µM): 0.876
